Laboratory results from ChEMBL document CHEMBL1201862, “PubChem BioAssay data set” (2004).
Values belong to the compound of their own block, whether it stands above or below them. Activity calls are given as the source filed them.

Experiments:
[1] = molecular target: Signal transducer and activator of transcription 1-alpha/beta (Homo sapiens, UniProt P42224); assay: STAT3 inhibitors, late-stage profile, late-stage follow-up, cell-based, STAT1 panel, qPCR, cytotoxicity, panel member STAT1 Inhibition (AID 2078)
[2] = molecular target: T1, COUP transcription factor 2 (Homo sapiens, UniProt P24468); assay: Luminescence-based cell-based high throughput dose response assay to identify inhibitors of COUP-TFII (NR2F2).; type: functional;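 note: HEK293 cells transiently cotransfected with COUP-TFII expression vector and reporter; luciferase reporter luminescence driven by COUP-TFII from the pX2-168 reporter plasmid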
T1 sequence (P24468 whole entry): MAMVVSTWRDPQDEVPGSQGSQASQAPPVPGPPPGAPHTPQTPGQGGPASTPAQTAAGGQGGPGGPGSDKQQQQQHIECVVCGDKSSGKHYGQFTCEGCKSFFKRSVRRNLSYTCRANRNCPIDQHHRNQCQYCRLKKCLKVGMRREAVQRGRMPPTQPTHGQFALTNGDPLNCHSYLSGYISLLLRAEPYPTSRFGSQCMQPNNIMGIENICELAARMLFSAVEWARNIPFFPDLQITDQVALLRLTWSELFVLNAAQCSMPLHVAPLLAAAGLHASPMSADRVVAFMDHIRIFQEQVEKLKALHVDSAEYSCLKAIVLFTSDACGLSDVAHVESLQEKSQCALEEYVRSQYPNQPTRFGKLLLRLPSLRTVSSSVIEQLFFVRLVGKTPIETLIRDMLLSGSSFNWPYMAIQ

[3] = molecular target: Signal transducer and activator of transcription 3 (Homo sapiens, UniProt P40763); assay: STAT3 inhibitors, late-stage profile, late-stage follow-up, cell-based, STAT1 panel, qPCR, cytotoxicity, panel member STAT3 Inhibition (AID 2078)
[4] = molecular target: Delta-type opioid receptor (Homo sapiens, UniProt P41143); assay: SAR Analysis of Agonists of the DOR Receptor using an Image-Based Assay - Set 3. [Related pubchem assays (depositor defined):AID1777, AID1786]; type: functional
[5] = molecular target: T2, Kappa-type opioid receptor (Homo sapiens, UniProt P41145); assay: KOR agonist analogs, arrestin-GFP redistribution, SAR follow-up, imaging, image-based, set 3 (AID 488833); type: functional
[6] = molecular target: T2, Kappa-type opioid receptor; assay: SAR analysis of small molecule agonists of the kappa opioid receptor via a luminescent beta-arrestin assay - Set 3. [Related pubchem assays (depositor defined):AID1777, AID1785, AID1786, AID1966, AID2133, AID2136, AID2284, AID2500]; type: functional
Mu-type opioid receptor = Mu-type opioid receptor (Homo sapiens, UniProt P35372); assay: SAR Analysis of Agonists of the MOR Receptor using an Image-Based Assay - Set 3. [Related pubchem assays (depositor defined):AID1777, AID1785, AID1786, AID1966, AID2133, AID2136, AID2284, AID2285, AID2352]; type: functional
[7] = molecular target: T3, Voltage-gated N-type calcium channel alpha-1B subunit/Amyloid beta A4 precursor protein-binding family A member 1 (Homo sapiens, UniProt Q00975+Q02410); type: protein assay
[8] = molecular target: T3, Voltage-gated N-type calcium channel alpha-1B subunit/Amyloid beta A4 precursor protein-binding family A member 1; type: protein assay; remark: listed apart in the source
[9] = molecular target: T4, Runt-related transcription factor 1/Core-binding factor subunit beta (Homo sapiens, UniProt Q01196+Q13951); assay: inhibitors of RUNX1 Runt–CBFb-SMMHC binding, primary screen, biochemical, FRET, Cerulean-Runt, Venus-CBFb-SMMHC, uHTS (AID 1434); type: protein assay;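 note: partner is the CBFb-SMMHC leukemia fusion protein rather than wild-type CBFb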
[10] = molecular target: Induced myeloid leukemia cell differentiation protein Mcl-1 (Homo sapiens, UniProt Q07820); type: functional
[11] = molecular target: T4, Runt-related transcription factor 1/Core-binding factor subunit beta; assay: inhibitors of RUNX1 Runt–CBFb-SMMHC binding, biochemical, TR-FRET (AID 1438); type: protein assay
[12] = molecular target: T3, Voltage-gated N-type calcium channel alpha-1B subunit/Amyloid beta A4 precursor protein-binding family A member 1; assay: disruptors of Mint-PDZ/N-type channel peptide interaction – biochemical, HTRF, SAR follow-up (AID 2489); type: functional
NS3 = NS3 (Hepatitis C virus, UniProt A3EZJ3); assay: PubChem AID 2173; set-up: species or system Hepacivirus hominis
[13] = molecular target: T5, Probable nicotinate-nucleotide adenylyltransferase (Staphylococcus aureus (strain N315), UniProt P65502); type: functional, Staphylococcus aureus subsp. aureus N315;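 for IC50 Mean: confirmatory dose-response retesting of NadD inhibitor hits first found in an ultra-high-throughput screen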
[14] = molecular target: T5, Probable nicotinate-nucleotide adenylyltransferase; type: functional, Staphylococcus aureus subsp. aureus N315; conditions: read-out: IC50_Mean
Streptococcus = assay: Group A Streptococcus viability loss, dose response, counter-screen for streptokinase expression inhibitor project, luminescence, BacTiterGlo (AID 1915); type: functional, organism-based;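 note: potency for reduction of bacterial viability or growth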
[15] = molecular target: Heat shock protein HSP 90-alpha (Homo sapiens, UniProt P07900); type: functional, organism-based
[16] = system: Streptococcus sp. 'group A'; assay: growth inhibition of control SK(-) GAS strain, dose response, counter-screen for streptokinase expression inhibitor project, luminescence, kanamycin, BacTiterGlo, confirmation (AID 1900); type: functional, organism-based
INS1 = assay: beta cell apoptosis inhibitors, cytokine rescue, dose response, luminescence, retest (AID 449756); type: functional, cell-based; conditions: Rattus norvegicus;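 note: cell death triggered by IL-1 beta plus TNF-alpha plus IFN-gamma mixture; protective hits raise ATP signal compared with cytokine alone wells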
Troponin, cardiac muscle = Troponin, cardiac muscle (Homo sapiens, UniProt P19429+P45379+P63316); assay: Fluorescence-based biochemical high throughput dose response assay for activators of the calcium sensitivity of cardiac Regulated Thin Filaments (RTF). [Related pubchem assays (depositor defined):AID493008, AID493018, AID504382, AID504383]; type: protein-complex assay

IC50 [2]: 5.71 µM (active)
Compound: O=C(c1ccccc1)C1CCN(c2ncnc3sccc23)CC1
IC50 [1]: > 55.7 µM (inactive) | IC50 [3]: 0.688 µM (active)

EC50 [4]: > 32 µM (inactive) | EC50 [5]: 5.99 µM (active) | EC50 [6]: 6.14 µM (active) | EC50 (Mu-type opioid receptor): > 32 µM (inactive)
Compound: COC(=O)c1ccc(CSc2nnc(-c3ccccn3)n2Cc2cccs2)cc1

Compound: O=C(COC(=O)c1c2c(nc3ccccc13)/C(=C/c1ccco1)CC2)NC1CCCC1
IC50 [7]: 5.81 µM (active) | IC50 [8]: 9.12 µM (active) | IC50 [9]: > 100 µM (inactive) | IC50 [10]: 6.5 µM (active) | IC50 [11]: 10.4 µM (active) | IC50 [12]: 3.75 µM (active) | IC50 (NS3): 12.6 µM (not active) | IC50 [13]: 6.95 µM (active) | IC50 [14]: 15 µM (active)

Compound: O=C(N/N=C/c1sc2ccccc2c1O)c1ccccc1
EC50 (Streptococcus): 10.1 µM (active) | AC50 [15]: 1.02 µM (active) | EC50 [16]: 0.702 µM (active) | AC50 (INS1): 0.864 µM (active) | EC50 (Troponin, cardiac muscle): 3.91 µM (active)
